According to ChEMBL document CHEMBL5042503, “"Clickable" Albumin Binders for Modulating the Tumor Uptake of Targeted Radiopharmaceuticals” (J Med Chem, 2022):

Molecular target: T1, Albumin (Homo sapiens, UniProt P02768)
Experiment: Binding affinity to human serum albumin assessed as dissociation constant using N-alpha-(6-FAM)-N-epsilon-(4-Iodophenylbutanoyl)-D-lysine as substrate and measured after 5 mins by fluorescence based competition assay
Settings: not given

T1 sequence (P02768 whole entry): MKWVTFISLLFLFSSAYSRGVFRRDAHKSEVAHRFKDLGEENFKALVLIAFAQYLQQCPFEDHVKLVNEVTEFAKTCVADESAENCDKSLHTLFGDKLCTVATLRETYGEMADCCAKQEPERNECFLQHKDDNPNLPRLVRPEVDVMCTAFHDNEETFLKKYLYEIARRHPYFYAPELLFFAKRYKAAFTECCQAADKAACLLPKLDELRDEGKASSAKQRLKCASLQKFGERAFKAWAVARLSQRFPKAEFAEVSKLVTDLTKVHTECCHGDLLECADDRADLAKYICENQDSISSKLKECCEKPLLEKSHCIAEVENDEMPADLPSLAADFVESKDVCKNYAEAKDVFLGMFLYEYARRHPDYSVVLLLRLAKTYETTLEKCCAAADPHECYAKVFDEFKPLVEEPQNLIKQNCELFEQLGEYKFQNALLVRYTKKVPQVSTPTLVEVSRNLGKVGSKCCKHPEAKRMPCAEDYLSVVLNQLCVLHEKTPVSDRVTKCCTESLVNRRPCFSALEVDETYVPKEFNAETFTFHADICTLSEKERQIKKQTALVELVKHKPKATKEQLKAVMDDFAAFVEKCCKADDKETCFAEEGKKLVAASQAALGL

Kd | Compound
0.23 µM | O=C(CCCc1ccc(I)cc1)NCCCC[C@@H](NC(=O)c1ccc(C(=O)O)c(-c2c3ccc(=O)cc-3oc3cc(O)ccc23)c1)C(=O)O

Tested on: not listed separately
Experiment: Lipophilicity, logD of compound at pH 7.4 under shaking condition by HPLC analysis
Assay type: physicochemical
Settings: buffer

logD | Compound
3.13 | [N-]=[N+]=Nc1ccc(C(=O)N[C@@H](CCCCNC(=O)CCCc2ccc(I)cc2)C(N)=O)cc1
1.75 | [N-]=[N+]=Nc1ccc(C(=O)N[C@@H](CCCCNC(=O)CCCc2ccc(I)cc2)C(=O)O)cc1

Molecular target: T1, Albumin
Experiment: Binding affinity to human serum albumin assessed as dissociation constant by isothermal titration calorimetry
Settings: not given

Kd | Compound
9 µM | CC(=O)N[C@@H](CCCCNC(=O)CCCc1ccc(I)cc1)C(=O)O
3.2 µM | CC(=O)N[C@H](CCCCNC(=O)CCCc1ccc(I)cc1)C(=O)O

Molecular target: T1, Albumin
Experiment: Binding affinity to human serum albumin assessed as dissociation constant and measured after 5 mins by fluorescence based competition assay
Settings: not given

Kd | Compound
80 µM | NC(=O)[C@H](CCC(=O)O)NC(=O)CCCc1ccc(I)cc1
110 µM | COC(=O)[C@H](CCCCNC(=O)CCCc1ccc(I)cc1)NC(C)=O
0.34 µM | C#Cc1ccc(C(=O)N[C@@H](CCCCNC(=O)CCCc2ccc(I)cc2)C(=O)O)cc1
36 µM | [N-]=[N+]=Nc1ccc(C(=O)N[C@@H](CCCCNC(=O)CCCc2ccccc2)C(=O)O)cc1
26 µM | [N-]=[N+]=Nc1ccc(C(=O)N[C@@H](CCCCNC(=O)CCCc2ccc(F)cc2)C(=O)O)cc1
3.2 µM | CC(=O)N[C@@H](CCCCNC(=O)CCCc1ccc(I)cc1)C(=O)O
4 µM | CC(C)Cc1ccc(C(C)C(=O)NCCCC[C@H](NC(=O)c2ccc(N=[N+]=[N-])cc2)C(=O)O)cc1 (stereo not given in full)
2 µM | [N-]=[N+]=Nc1ccc(C(=O)N[C@@H](CCCCNC(=O)CCCc2ccc(Br)cc2)C(=O)O)cc1
70 µM | CC(=O)N[C@@H](CCCCNC(=O)CCCc1ccc(I)cc1)C(N)=O
8 µM | O=C(O)CN1CCN(CC(=O)O)CCN(C(CCC(=O)N[C@@H](CCCCNC(=O)CCCc2ccc(I)cc2)C(=O)O)C(=O)O)CC1 (stereo not given in full)
7 µM | CC(=O)N[C@H](CCCCNC(=O)CCCc1ccc(I)cc1)C(=O)O
100 µM | NC(=O)[C@H](CC(=O)O)NC(=O)CCCc1ccc(I)cc1
0.36 µM | [N-]=[N+]=Nc1ccc(C(=O)N[C@@H](CCCCNC(=O)CCCc2ccc(I)cc2)C(=O)O)cc1
7.3 µM | C#CCCC(=O)N[C@H](CCCCNC(=O)CCCc1ccc(I)cc1)C(=O)O
1.2 µM | [N-]=[N+]=Nc1ccc(C(=O)N[C@H](CCCCNC(=O)CCCc2ccc(I)cc2)C(=O)O)cc1
3 µM | Cc1ccc(CCCC(=O)NCCCC[C@H](NC(=O)c2ccc(N=[N+]=[N-])cc2)C(=O)O)cc1
4 µM | O=C(CCCc1ccc(I)cc1)NCCCC[C@H](C(=O)O)n1cc(-c2ccccc2)nn1
8 µM | [N-]=[N+]=NCCCCC(=O)N[C@H](CCCCNC(=O)CCCc1ccc(I)cc1)C(=O)O
4.1 µM | [N-]=[N+]=Nc1ccc(C(=O)N[C@@H](CCCCNC(=O)CCCc2ccc(C(F)(F)F)cc2)C(=O)O)cc1
3.5 µM | [N-]=[N+]=Nc1ccc(C(=O)N[C@@H](CCCCNC(=O)CCCc2ccc(Cl)cc2)C(=O)O)cc1
6 µM | [N-]=[N+]=NCCCCC(=O)N[C@@H](CCCCNC(=O)CCCc1ccc(I)cc1)C(=O)O

Molecular target: T1, Albumin
Experiment: Binding affinity to human serum albumin assessed as dissociation constant and measured after 5 mins by MST assay
Settings: not given

Kd | Compound
8 µM | CC(=O)N[C@H](CCCCNC(=O)CCCc1ccc(I)cc1)C(=O)O
2.6 µM | [N-]=[N+]=Nc1ccc(C(=O)N[C@H](CCCCNC(=O)CCCc2ccc(I)cc2)C(=O)O)cc1

Molecular target: Somatostatin receptor type 2 (Mus musculus) (UniProt P30875)
Sequence (P30875 whole entry): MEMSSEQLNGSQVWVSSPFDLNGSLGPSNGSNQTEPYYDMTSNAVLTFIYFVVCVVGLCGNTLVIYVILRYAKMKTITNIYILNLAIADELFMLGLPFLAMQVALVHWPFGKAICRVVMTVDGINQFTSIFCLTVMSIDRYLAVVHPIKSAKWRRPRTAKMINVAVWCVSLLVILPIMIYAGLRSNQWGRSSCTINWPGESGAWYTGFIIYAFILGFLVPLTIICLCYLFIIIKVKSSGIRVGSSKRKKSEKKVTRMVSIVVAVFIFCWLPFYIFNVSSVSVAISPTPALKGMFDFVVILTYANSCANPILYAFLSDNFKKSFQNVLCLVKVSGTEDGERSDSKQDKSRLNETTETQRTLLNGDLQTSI
Experiment: Binding affinity to mouse SST2 expressed in mouse pheochromocytoma cells assessed as maximum binding capacity for 1 hr by Nanodrop spectrophotometric analysis
Assay type: cell-based
Settings: Pheochromocytoma cell

Bmax | Compound
383 fmol/mg | [64Cu]Cu-NODAGA-TATE
779 fmol/mg | [64Cu]Cu-DOTA-TATE
